Patent US11407725B2 (The Board of Trustees of the University of Illinois, priority 2018, dated 2022)

Columns and labels:
[1] = biological target: T1, ALDH1A3 (Homo sapiens, UniProt P47895); assay: ALDH isoform selectivity of red probes: ALDH1A3; type: biochemical
T1 construct: made in house
T1 sequence (P47895 1-512): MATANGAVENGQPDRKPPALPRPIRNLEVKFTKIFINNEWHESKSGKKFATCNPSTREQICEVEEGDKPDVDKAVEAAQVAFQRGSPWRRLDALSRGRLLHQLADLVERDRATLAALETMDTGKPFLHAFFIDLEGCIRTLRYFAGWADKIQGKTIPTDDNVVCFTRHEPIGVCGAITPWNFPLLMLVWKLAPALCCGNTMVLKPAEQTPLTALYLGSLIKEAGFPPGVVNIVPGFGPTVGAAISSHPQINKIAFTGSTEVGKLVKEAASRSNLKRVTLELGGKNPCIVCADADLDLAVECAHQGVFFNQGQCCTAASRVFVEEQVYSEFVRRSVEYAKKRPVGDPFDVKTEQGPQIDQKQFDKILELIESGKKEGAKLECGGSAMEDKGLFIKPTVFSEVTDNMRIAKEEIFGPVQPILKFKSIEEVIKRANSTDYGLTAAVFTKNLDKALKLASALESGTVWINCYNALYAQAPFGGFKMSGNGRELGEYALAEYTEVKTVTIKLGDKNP
Description: (§1) Each ALDH isoform was added to a 50 mM triethanolamine solution (pH 7.4) containing 2.0 mM NAD^+ and 100 μM substrate at room temperature. Benzaldehyde was the substrate for ALDH3A1. Propanal was the substrate for all other isoforms. ALDH isoform activity was determined by monitoring the rate of NADH production through the increase in absorbance at 340 nm (ε=6220 M^−1cm^−1). For these assays, 1 unit is defined as the amount of enzyme that catalyzes the conversion of […] per minute. For every combination of dye and enzyme, 2 μM dye was preincubated with 2.0 mM NAD^+ in 50 mM triethanolamine solution (pH 7.4). The reaction was initiated by addition of 1 unit of ALDH. Dyes were excited at 590 nm, and fluorescence was measured continuously at 610 nm.

[2] = system: ALDH1A2, ALDH2, ALDH3A1, ALDH4A1, and ALDH5A1; assay: ALDH isoform selectivity of red-AlDeSense: other isoforms; type: biochemical, human; settings: 2 μM dye
Description: as §1

[3] = system: MDA-MB-231 mammospheres; assay: Mammosphere culture and imaging; type: cell-based; settings: 2 μM dye
Description: Mammosphere formation from MDA-MB-231 breast cancer cells was performed as described previously with some modifications. Cells were resuspended and diluted to a density of 2000 cells/mL in DMEM/F12 (Sigma-Aldrich) supplemented with 2% B27 supplement (Thermo Fisher), 40 ng/mL rhFGF-2 (Miltenyi Biotec), and 20 ng/mL rhEGF (Gibco®). They were plated in ultra-low attachment 6-well plates (Corning) and incubated at 37° C. and 5% CO2 for 5 days or until most mammospheres were between […]. At this point, the mammospheres were transferred to a 4-well chamber slide coated with Poly-L-lysine as described previously. The mammospheres were then either immediately imaged with AlDeSense or Ctrl-AlDeSense, or the media was exchanged with full DMEM media supplement with 10% FBS and non-essential amino acids to allow differentiation over 36 hours.
At various time points, the mammospheres were stained with 2 μM AlDeSense or Ctrl-AlDeSense as described above. Staining continued for 1 h at room temperature before imaging with a wide field fluorescence microscope (Zeiss Axiovert 200M). A GFP filter set was used to excite the fluorophores. Exposure times were set equally for all images taken within a data set and configured to give low signal in Ctrl-AlDeSense stained tumorspheres. Only mammospheres greater than 50 μm in diameter were considered in the analysis.

[4] = system: K562 cells; assay: Flow cytometry of K562 cells stained with AlDeSense; type: cell-based, human
Description: K562 cells were resuspended in PBS to a final concentration of 100,000 cells/mL. The suspension was divided into 0.5 mL aliquots and the cells were collected by centrifugation at 1000 rpm for 5 min at 4° C. Each sample was then resuspended in premixed AlDeSense AM or Ctrl-AlDeSense AM solutions (1.5 μM, PBS). For each dye, triplicate samples were prepared. Cells were incubated with dye for 30 minutes at room temperature with rocking to prevent cell clumping and ensure even dye distribution. At the end of the incubation period, cells were again collected by centrifugation at 1000 rpm for 5 min at 4° C. The dye solution was removed by aspiration, and each sample of cells were resuspended in 0.5 mL of PBS. The samples were immediately placed on ice until analysis. The samples were analyzed by a BD LSR II Flow Cytometry Analyzer using a 488 nm laser and a FITC filter. Data analyzed on FCS Express 6.04.
The day before imaging, Nunc™ Lab-Tek™ Chamber Slide™ systems (Thermo Fisher) were coated with poly-L-lysine (Trevigen) according to manufacturer's instructions. Cells were added to the chamber slides at a concentration of 400,000 cells/mL, yielding 90% confluent cells after 24 h. […] Images were analyzed using ImageJ software (Version 1.5 in).

SMILES | selectivity ALDH1A1 versus ALDH1A3 [1] | Enzyme Activity 1A3 ([1]; Table 2) | cross-reactivity with ALDH1A2, ALDH2, ALDH3A1, ALDH4A1, ALDH5A1 [2] | brightness of mammospheres versus Ctrl-AlDeSense [3] | brightness of stained K562 cells versus AlDeSense with inhibitor or Ctrl-AlDeSense [4]
Cc1cc(C=O)c(F)c(F)c1C1=C2C=CC(=O)C=C2[Si](C)(C)c2cc(O)ccc21 | selective for ALDH1A1 over ALDH1A3 | Low | no cross-reactivity |  | 
Cc1cc(C=O)ccc1-c1c2cc(F)c(=O)cc-2oc2cc(O)c(F)cc12 [AlDeSense] |  |  |  | 3 fold | significantly brighter
